Measured values: patent US5196292A, “Nucleated high contrast photographic elements containing ballasted thioether isothioureas to inhibit pepper fog and restrain image spread” (priority 1991, dated 1993)

How the values were obtained:
[1] = image spread: halftone dot growth rate during development; conditions: for Dot Growth Rate: Table II, 0.5 mmol/Ag mol, control 0.63 microns/sec; for reduction of dot growth rate (in words): from Table II, versus control, silver chlorobromide emulsion
Experimental: (§1) Each coating used in obtaining the data provided in these examples was prepared on a polyester support, using a monodispersed 0.23 micrometer cubic, rhodium-doped, sulfur plus gold sensitized AgClBr(70/30) emulsion at 3.24 g/m^2 Ag, 2.35 g gel/m^2 and 1.00 g latex/m^2, where the latex is a copolymer of methyl acrylate, 2-acrylamido-2-methylpropane sulfonic acid and 2-acetoacetoxyethylmethacrylate. Sulfur and gold sensitization was provided by addition of 1.5 mg/Ag mole of 1,3-dicarboxymethyl-1,3-dimethyl-2-thiourea and 1.1 mg/Ag mole of potassium tetrachloroaurate. The silver halide emulsion also contained, in amounts of 50, 400, and 200 mg/Ag mole, respectively, the antifoggants 1-(3-acetamidophenyl)-5-mercaptotetrazole, 5-carboxy-4-hydroxy-6-methyl-2-methyl-mercapto1,3,3a,7-tetra-azaindene and 5-bromo-4-hydroxy-6-methyl-1,3,3a,7-tetraazaindene. The emulsion was spectr sensitized at 208 mg/Ag mol with a sensitizing dye of the formula: [drawing 17] and the emulsion layer was overcoated with gelatin containing polymethylmethacrylate beads. The nucleating agent was added as a methanol solution to the emulsion melts at a level of 0.2 millimoles (mM) per mole of silver. The compound employed as the nucleating agent is represented by the formula: [drawing 18]
(§2) An "incorporated booster" was added as a methanol solution in an amount of 2 g/Ag mol. The compound employed as the "incorporated booster" is represented by the formula: [drawing 19] where Pr represents n-propyl
(§3) Ballasted thioether isothioureas I to VII were incorporated n the emulsion at 0.5 mmol/Ag mol as methanol solutions. Coatings were exposed through a 0.1 Log E step tablet for five seconds to a 3000° K. tungsten light source and processed for 30 seconds at 30° C. in the developer solution. Processing was carried out in a KODAK KODAMATIC Model 42S processor.
Each of the coatings was also analyzed for the effect upon image spread of the incorporation of the isothiourea compound.
Image spread measurements were performed by following the growth in diameter of halftone dots with development time. The films were contact exposed to a 52 line/cm 90% tint to produce a 10% exposed dot pattern. The films were then developed in a device that measures the infrared (IR) density during development. The integrated IR halftone density of the developing tint pattern was converted to the equivalent dot diameter using the relation between integrated density and percent dot area. The resulting plots of increasing dot diameter with development time were linear (constant dot growth rate) during the first 60 to 90 seconds of development.

[2] = sensitometry: change in speed and practical density point versus control; conditions: Table I; for Delta Log Speed: 0.5 mmol/Ag mol isothiourea, change versus control without isothiourea; for Delta PDP (practical density point): 0.5 mmol/Ag mol, density at 0.4 log E past speed point, Test PDP - Control PDP
Experimental: as §1, §2, §3
(§4) The concentrate was diluted at a ratio of one part of concentrate to three parts of water to produce a working strength developing solution with a pH of 10.5.
(§5) An electronic image analyzer was used to scan processed unexposed samples and count the number of pepper fog spots (>10 micrometer diameter) contained in an area of 600 square millimeters. Standard sensitometry exposures were processed and analyzed to monitor speed and shoulder density effects.
(§6) Sensitometry parameters are expressed in Table I in terms of the change produced by incorporation of the ballasted thioether isothiourea versus the control which contained no isothiourea compound and was processed under identical conditions. Values are reported for speed, practical density point (PDP, a measure of shoulder development) and pepper fog (PF). Therefore, the changes in speed, practical density point and pepper fog produced by the ballasted thioether isothiourea are directly recorded in the table. By definition, the delta log speed, delta PDP and delta log PF for the control are zero.
(§7) In each of examples 1 to 7, the ballasted thioether isothiourea was employed in the form of the hydrochloride salt. Comparative test A utilized the hydrobromide salt of isothiourea compound "A" of the formula: [drawing 20] Comparative test B utilized the hydrobromide salt of isothiourea compound "B" of the formula: [drawing 21] Both compounds A and B were utilized at a concentration of 0.5 mmol/Ag mol.

[3] = pepper fog spot count by electronic image analyzer, change versus control; conditions: for Delta Log PF (pepper fog): Table I, 0.5 mmol/Ag mol, spots >10 micrometer diameter in 600 square millimeters, -0.3 = two times reduction; for reduction in pepper fog (in words): from Table I, versus control
Experimental: as §1, §2, §3, §4, §5, §6, §7

Row | SMILES | Dot Growth Rate [1] | reduction of dot growth rate (in words) [1] | Delta Log Speed [2] | Delta PDP (practical density point) [2] | Delta Log PF (pepper fog) [3] | reduction in pepper fog (in words) [3]
1 | CCCCCCCCCCCCSC(=N)N [B, reference compound] | 0.62 microns/sec | ineffective in reducing dot growth rate | -0.02 | -0.34 | -0.07 | also reduced pepper fog, but to a much lesser extent
2 | CCCCCCCCSC(=N)N [Compound A, reference compound] | 0.62 microns/sec | ineffective in reducing dot growth rate | -0.02 | -0.22 | -0.12 | also reduced pepper fog, but to a much lesser extent
3 | CCCCCCSCCCSC(=N)N [III] | 0.54 microns/sec | – | -0.02 | -0.36 | -0.58 | –
4 | CCCCCCCCCCSCCSC(=N)N [II] | 0.58 microns/sec | – | -0.03 | -0.14 | -0.46 | –
5 | CCCCCCCCCCSCCCSC(=N)N [IV] | 0.58 microns/sec | – | -0.01 | -0.39 | -0.43 | –
6 | CCCCCCSCCSC(=N)N [I] | 0.55 microns/sec | – | -0.01 | -0.06 | -0.14 | –
7 | N=C(N)SCCSCc1ccccc1 [VII] | 0.54 microns/sec | – | -0.03 | -0.42 | -0.86 | reducing pepper fog by a factor of almost ten times
8 | N=C(N)SCCSc1ccccc1 [VI] | 0.60 microns/sec | – | -0.01 | -0.19 | -0.48 | –
9 | CCCCSCCSC(=N)N [V] | 0.57 microns/sec | – | -0.01 | -0.38 | -0.33 | –
